One experiment deals with T1, JAK3 (Homo sapiens, UniProt P52333).
T1 sequence (P52333 1-1124): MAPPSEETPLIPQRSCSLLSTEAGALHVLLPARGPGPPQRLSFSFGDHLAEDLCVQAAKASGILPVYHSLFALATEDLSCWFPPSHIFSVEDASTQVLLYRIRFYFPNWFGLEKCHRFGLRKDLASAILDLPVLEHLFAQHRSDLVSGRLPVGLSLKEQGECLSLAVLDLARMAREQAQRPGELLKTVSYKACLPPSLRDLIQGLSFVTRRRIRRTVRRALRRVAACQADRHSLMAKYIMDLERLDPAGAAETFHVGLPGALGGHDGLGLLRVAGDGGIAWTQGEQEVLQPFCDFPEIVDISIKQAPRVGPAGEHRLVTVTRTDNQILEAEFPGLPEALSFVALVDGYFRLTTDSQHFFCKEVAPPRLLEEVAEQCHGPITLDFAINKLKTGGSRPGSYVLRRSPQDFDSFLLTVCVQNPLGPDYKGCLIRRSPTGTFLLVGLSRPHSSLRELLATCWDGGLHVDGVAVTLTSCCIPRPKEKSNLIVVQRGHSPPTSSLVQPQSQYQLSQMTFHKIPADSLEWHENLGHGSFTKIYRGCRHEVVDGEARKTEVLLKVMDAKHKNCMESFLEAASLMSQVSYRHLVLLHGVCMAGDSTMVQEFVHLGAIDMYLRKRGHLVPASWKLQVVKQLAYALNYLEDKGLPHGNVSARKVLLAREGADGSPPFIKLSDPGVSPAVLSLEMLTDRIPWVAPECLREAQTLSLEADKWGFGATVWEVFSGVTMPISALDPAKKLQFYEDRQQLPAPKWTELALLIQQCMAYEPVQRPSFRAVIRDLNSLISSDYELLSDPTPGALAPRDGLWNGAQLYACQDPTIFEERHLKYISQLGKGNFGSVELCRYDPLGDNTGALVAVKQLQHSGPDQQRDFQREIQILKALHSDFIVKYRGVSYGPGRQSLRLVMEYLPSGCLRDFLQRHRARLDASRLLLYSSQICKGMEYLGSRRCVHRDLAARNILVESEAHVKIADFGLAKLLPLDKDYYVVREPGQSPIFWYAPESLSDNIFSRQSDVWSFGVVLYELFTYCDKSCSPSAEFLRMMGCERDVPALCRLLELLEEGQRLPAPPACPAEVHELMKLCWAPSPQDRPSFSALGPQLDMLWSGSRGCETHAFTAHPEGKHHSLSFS
The experiment is described as follows: Inhibition of a panel of kinases, in vitro HotSpot kinase assay: JAK3. It counts as biochemical. As to conditions: D-compounds panel data; 1 μM ATP; read-out: IC50 JAK3.

In another experiment the target is T2, ITK (Homo sapiens, UniProt Q08881).
T2 sequence (Q08881 1-620): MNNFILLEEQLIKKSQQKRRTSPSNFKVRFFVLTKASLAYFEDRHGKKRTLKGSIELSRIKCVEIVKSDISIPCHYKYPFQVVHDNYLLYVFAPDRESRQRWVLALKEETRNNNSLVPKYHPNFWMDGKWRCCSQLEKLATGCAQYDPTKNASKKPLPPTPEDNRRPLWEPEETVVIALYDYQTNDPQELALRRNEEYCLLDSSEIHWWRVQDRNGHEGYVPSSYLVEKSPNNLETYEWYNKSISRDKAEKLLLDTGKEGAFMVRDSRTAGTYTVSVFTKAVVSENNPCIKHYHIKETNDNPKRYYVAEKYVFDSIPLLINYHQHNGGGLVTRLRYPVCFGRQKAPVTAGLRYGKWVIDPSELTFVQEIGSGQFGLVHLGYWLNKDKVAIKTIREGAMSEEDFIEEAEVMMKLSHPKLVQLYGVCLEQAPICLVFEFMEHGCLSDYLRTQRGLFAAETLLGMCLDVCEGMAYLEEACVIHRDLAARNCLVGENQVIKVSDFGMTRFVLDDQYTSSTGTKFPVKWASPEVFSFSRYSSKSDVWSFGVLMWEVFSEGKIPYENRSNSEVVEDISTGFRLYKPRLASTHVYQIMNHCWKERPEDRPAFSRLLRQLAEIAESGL
The experiment is described as follows: Inhibition of a panel of kinases, in vitro HotSpot kinase assay: ITK. The conditions noted are these: D-compounds panel data; 1 μM ATP. The experiment is classed as biochemical. The procedure: The degree of inhibition of a panel of kinases is determined using the in vitro HotSpot kinase assay (purified enzymes, ^33P-ATP, an appropriate substrate and 1 μM ATP).

For the molecule `C[C@@H]1[C@H](N2CCN(C)C2=O)CCCN1c1cnc(C(N)=O)c(Nc2ccc(C3(C)CCN(C4CC4)CC3)cc2)n1` [Example D-38, 3-{[4-(1-cyclopropyl-4-methylpiperidin-4-yl)phenyl]amino}-5-[(2R,3R)-2-methyl-3-(3-methyl-2-oxoimidazolidin-1-yl)piperidin-1-yl]pyrazine-2-carboxamide], the IC50 on JAK3 and against ITK was 10 to 100 nM throughout.
Turning to `C[C@@H]1[C@H](NC(=O)c2ccc(C(C)(C)N)cc2)CCCN1c1cnc(C(N)=O)c(Nc2cnn(C)c2)n1` [Example D-51, 5-[(2R,3R)-3-[4-(2-aminopropan-2-yl)benzamido]-2-methylpiperidin-1-yl]-3-[(1-methyl-1H-pyrazol-4-yl)amino]pyrazine-2-carboxamide], the IC50 – broadly, the point on the concentration scale where inhibition reaches its midpoint – lay in the range of 100 to 1000 nM on JAK3 and 10 to 100 nM on ITK.
Regarding `Cc1cc(Nc2nc(N3CCC[C@@H](NC(=O)c4ccc(C5CC5)cc4F)C3)cnc2C(N)=O)on1` [Example D-2, 5-[(3R)-3-(4-cyclopropyl-2-fluorobenzamido)piperidin-1-yl]-3-[(3-methyl-1,2-oxazol-5-yl)amino]pyrazine-2-carboxamide], the results for the IC50 on JAK3 and against ITK were 1000 to 10000 nM and greater than 10000 nM, respectively.
The like results for `C[C@@H]1[C@H](NC(=O)N(C)C)CCCN1c1cnc(C(N)=O)c(Nc2cn[nH]c2)n1` [Example D-53, 5-[(2R,3R)-3-[(dimethylcarbamoyl)amino]-2-methylpiperidin-1-yl]-3-[(1H-pyrazol-4-yl)amino]pyrazine-2-carboxamide] were, in that order, 1000 to 10000 nM and 100 to 1000 nM.
The like results for `C[C@@H]1[C@H](NC(=O)c2ccc(C3CC3)cc2)CCCN1c1cnc(C(N)=O)c(Nc2cnc(N3CCN(C)CC3)nc2)n1` [Example D-318, 5-[(2R,3R)-3-(4-cyclopropylbenzamido)-2-methylpiperidin-1-yl]-3-{[2-(4-methylpiperazin-1-yl)pyrimidin-5-yl]amino}pyrazine-2-carboxamide] were, in that order, greater than 10000 nM and 100 to 1000 nM.
For the molecule `C[C@@H]1[C@H](NC(=O)c2ccc(C(C)(C)O)nc2)CCCN1c1nnc(C(N)=O)c(Nc2cnn(C)c2)n1` [Example D-41, 3-[(2R,3R)-3-[6-(2-hydroxypropan-2-yl)pyridine-3-amido]-2-methylpiperidin-1-yl]-5-[(1-methyl-1H-pyrazol-4-yl)amino]-1,2,4-triazine-6-carboxamide], the IC50 on JAK3 and against ITK was 100 to 1000 nM throughout.
`C[C@@H]1[C@H](NC(=O)c2cnc(C3CC3)nc2)CCCN1c1cnc(C(N)=O)c(Nc2cnn(C)c2)n1` [Example D-86, 5-[(2R,3R)-3-(2-cyclopropylpyrimidine-5-amido)-2-methylpiperidin-1-yl]-3-[(1-methyl-1H-pyrazol-4-yl)amino]pyrazine-2-carboxamide]: the IC50 on JAK3 is 100 to 1000 nM; at ITK, 10 to 100 nM.
The like results for `CN(C)C(=O)N[C@H]1CCCN(c2cnc(C(N)=O)c(Nc3ccc(C4(C)CCN(C5CCCC5)CC4)cc3)n2)[C@@H]1CO` [Example D-61, 3-{[4-(1-cyclopentyl-4-methylpiperidin-4-yl)phenyl]amino}-5-[(2S,3S)-3-[(dimethylcarbamoyl)amino]-2-(hydroxymethyl)piperidin-1-yl]pyrazine-2-carboxamide] were, in that order, greater than 10000 nM and 1000 to 10000 nM.
Turning to `C[C@@H]1[C@H](NC(=O)c2ccc(C(C)(C)O)nc2)CCCN1c1cnc(C(N)=O)c(Nc2cnn(C)c2)n1` [Example D-40, 5-[(2R,3R)-3-[6-(2-hydroxypropan-2-yl)pyridine-3-amido]-2-methylpiperidin-1-yl]-3-[(1-methyl-1H-pyrazol-4-yl)amino]pyrazine-2-carboxamide], the IC50 at JAK3 and at ITK was 100 to 1000 nM in each case.

The record behind these values is patent US20210070748A1, “INHIBITORS OF BRUTONS TYROSINE KINASE” (Pharmacyclics LLC, priority 2015, published 2021).
